{"source": "paper PMC5218480", "about": "(PLoS ONE, 2017)", "system": "MV-4-11 cells", "experiment": "Gene expression microarray analysis (Affymetrix PrimeView) and GSEA", "format": "cell-based, human", "set-up": "RFU PODN (11730768_x_at) / Fold change /veh PODN (11730768_x_at) / RFU LINC00158 (11744669_a_at) / Fold change /veh LINC00158 (11744669_a_at) / RFU DUSP10 (11751237_a_at) / Fold change /veh DUSP10 (11751237_a_at) / RFU ID3 (11757404_x_at) / Fold change /veh ID3 (11757404_x_at) / RFU PLEKHG5 (11737974_s_at) / Fold change /veh PLEKHG5 (11737974_s_at) / RFU LRRC4B (11730491_at) / Fold change /veh LRRC4B (11730491_at) / RFU GIMAP4 (11747438_a_at) / Fold change /veh GIMAP4 (11747438_a_at) / RFU KRT8 (11758183_x_at) / Fold change /veh KRT8 (11758183_x_at) / RFU CNN1 (11734310_a_at) / Fold change /veh CNN1 (11734310_a_at) / RFU VPS37D (11726825_at) / Fold change /veh VPS37D (11726825_at) / RFU C10orf10 (11716522_x_at) / Fold change /veh C10orf10 (11716522_x_at) / RFU KIR2DL2 /// KIR2DL4 /// KIR2DL5A /// KIR2DL5B /// KIR2DS1 /// KIR2DS2 /// KIR2DS3 /// KIR2DS4 /// KIR3DL3 /// KIR3DL3 /// KIR3DS1 (11738374_at) / Fold change /veh KIR2DL2 /// KIR2DL4 /// KIR2DL5A /// KIR2DL5B /// KIR2DS1 /// KIR2DS2 /// KIR2DS3 /// KIR2DS4 /// KIR3DL3 /// KIR3DL3 /// KIR3DS1 (11738374_at) / RFU C1QL1 (11718748_at) / Fold change /veh C1QL1 (11718748_at) / RFU TMPRSS4 (11747572_a_at) / Fold change /veh TMPRSS4 (11747572_a_at) / RFU HAMP (11756126_x_at) / Fold change /veh HAMP (11756126_x_at) / RFU RNFT2 (11725882_a_at) / Fold change /veh RNFT2 (11725882_a_at) / RFU NR4A2 (11747474_a_at) / Fold change /veh NR4A2 (11747474_a_at) / RFU ABCC12 (11746883_a_at) / Fold change /veh ABCC12 (11746883_a_at) / RFU TMEM136 (11760407_x_at) / Fold change /veh TMEM136 (11760407_x_at) / RFU CLDN22 /// WWC2 (11732394_at) / Fold change /veh CLDN22 /// WWC2 (11732394_at) / RFU HLA-DPB1 (11760878_x_at) / Fold change /veh HLA-DPB1 (11760878_x_at) / RFU SPINT1 (11716480_a_at) / Fold change /veh SPINT1 (11716480_a_at) / RFU GAP43 (11754022_s_at) / Fold change /veh GAP43 (11754022_s_at) / RFU A4GNT (11735810_at) / Fold change /veh A4GNT (11735810_at) / RFU PRB3 (11715151_x_at) / Fold change /veh PRB3 (11715151_x_at) / RFU TUBB4B (11761932_at) / Fold change /veh TUBB4B (11761932_at) / RFU CAPN14 (11732068_a_at) / Fold change /veh CAPN14 (11732068_a_at) / RFU TMCC2 (11721928_a_at) / Fold change /veh TMCC2 (11721928_a_at) / RFU IRGQ (11745062_a_at) / Fold change /veh IRGQ (11745062_a_at) / RFU FAM174B (11720279_a_at) / Fold change /veh FAM174B (11720279_a_at) / RFU TMPRSS4 (11748680_a_at) / Fold change /veh TMPRSS4 (11748680_a_at) / RFU FAM212B (11763350_a_at) / Fold change /veh FAM212B (11763350_a_at) / RFU PLEKHG5 (11743358_a_at) / Fold change /veh PLEKHG5 (11743358_a_at) / RFU ZSCAN30 (11745921_a_at) / Fold change /veh ZSCAN30 (11745921_a_at) / RFU CMKLR1 (11741424_a_at) / Fold change /veh CMKLR1 (11741424_a_at) / RFU LOC101060620 /// MAPK8IP1 (11723275_at) / Fold change /veh LOC101060620 /// MAPK8IP1 (11723275_at) / RFU SPTSSB (11747773_x_at) / Fold change /veh SPTSSB (11747773_x_at) / RFU PRSS12 (11739890_at) / Fold change /veh PRSS12 (11739890_at) / RFU BIN1 (11741810_x_at) / Fold change /veh BIN1 (11741810_x_at) / RFU WNT11 (11732464_a_at) / Fold change /veh WNT11 (11732464_a_at) / RFU C10orf10 (11716521_a_at) / Fold change /veh C10orf10 (11716521_a_at) / RFU C5orf56 (11738089_at) / Fold change /veh C5orf56 (11738089_at) / RFU CYB561 (11721691_x_at) / Fold change /veh CYB561 (11721691_x_at) / RFU ANKRD19P (11752326_a_at) / Fold change /veh ANKRD19P (11752326_a_at) / RFU OR2T12 /// OR2T33 /// OR2T8 (11738714_s_at) / Fold change /veh OR2T12 /// OR2T33 /// OR2T8 (11738714_s_at) / RFU VCAN (11748164_a_at) / Fold change /veh VCAN (11748164_a_at) / RFU JSRP1 (11732532_at) / Fold change /veh JSRP1 (11732532_at) / RFU KRTAP10-11 (11738290_x_at) / Fold change /veh KRTAP10-11 (11738290_x_at) / RFU MYO3A (11730013_a_at) / Fold change /veh MYO3A (11730013_a_at) / RFU EBF3 (11725865_a_at) / Fold change /veh EBF3 (11725865_a_at) / RFU CAMK2N1 (11719241_x_at) / Fold change /veh CAMK2N1 (11719241_x_at) / RFU C5orf56 (11738088_a_at) / Fold change /veh C5orf56 (11738088_a_at) / RFU OLFML3 (11715873_a_at) / Fold change /veh OLFML3 (11715873_a_at) / RFU LOC100653217 /// NTM (11731650_a_at) / Fold change /veh LOC100653217 /// NTM (11731650_a_at) / RFU MAPK11 (11762145_a_at) / Fold change /veh MAPK11 (11762145_a_at) / RFU FIZ1 (11724087_x_at) / Fold change /veh FIZ1 (11724087_x_at) / RFU OASL (11726364_x_at) / Fold change /veh OASL (11726364_x_at) / RFU SOX15 (11748057_x_at) / Fold change /veh SOX15 (11748057_x_at) / RFU CD79A (11719716_a_at) / Fold change /veh CD79A (11719716_a_at) / RFU HIST1H1D (11736915_at) / Fold change /veh HIST1H1D (11736915_at) / RFU CASKIN2 (11723855_a_at) / Fold change /veh CASKIN2 (11723855_a_at) / RFU LOC730098 (11760151_x_at) / Fold change /veh LOC730098 (11760151_x_at) / RFU OR4N2 (11742367_at) / Fold change /veh OR4N2 (11742367_at) / RFU PRRT2 (11749266_a_at) / Fold change /veh PRRT2 (11749266_a_at) / RFU SNX32 (11753110_a_at) / Fold change /veh SNX32 (11753110_a_at) / RFU CDHR5 (11726645_a_at) / Fold change /veh CDHR5 (11726645_a_at) / RFU RCAN1 (11760418_a_at) / Fold change /veh RCAN1 (11760418_a_at) / RFU FAM167A (11723789_a_at) / Fold change /veh FAM167A (11723789_a_at) / RFU FAM26E (11764081_at) / Fold change /veh FAM26E (11764081_at) / RFU ISYNA1 (11749810_s_at) / Fold change /veh ISYNA1 (11749810_s_at) / RFU ACY1 (11761880_at) / Fold change /veh ACY1 (11761880_at) / RFU 11764098_at / Fold change /veh 11764098_at / RFU SAMD14 (11745864_x_at) / Fold change /veh SAMD14 (11745864_x_at) / RFU NPB (11741838_a_at) / Fold change /veh NPB (11741838_a_at) / RFU TMPRSS6 (11731388_a_at) / Fold change /veh TMPRSS6 (11731388_a_at) / RFU KRTAP10-2 (11738614_at) / Fold change /veh KRTAP10-2 (11738614_at) / RFU ARHGAP8 /// PRR5-ARHGAP8 (11727945_x_at) / Fold change /veh ARHGAP8 /// PRR5-ARHGAP8 (11727945_x_at) / RFU KRTAP5-7 /// NADSYN1 (11734609_at) / Fold change /veh KRTAP5-7 /// NADSYN1 (11734609_at) / RFU RASL12 (11751679_a_at) / Fold change /veh RASL12 (11751679_a_at) / RFU CDKN2B (11736163_a_at) / Fold change /veh CDKN2B (11736163_a_at) / RFU PRF1 (11729649_at) / Fold change /veh PRF1 (11729649_at) / RFU, ZNF638 /// ZNF638-IT1 / Fold change vs veh, ZNF638 /// ZNF638-IT1 / RFU, PANK3 / Fold change vs veh, PANK3 / RFU, SH3YL1 / Fold change vs veh, SH3YL1 / RFU, ZEB2 / Fold change vs veh, ZEB2 / RFU, NRIP1 / Fold change vs veh, NRIP1 / RFU, PTTG1IP / Fold change vs veh, PTTG1IP / RFU, CAPN2 / Fold change vs veh, CAPN2 / RFU, MED14 / Fold change vs veh, MED14 / RFU, SNORA58 / Fold change vs veh, SNORA58 / RFU, C1orf63 / Fold change vs veh, C1orf63 / RFU, LRRFIP1 / Fold change vs veh, LRRFIP1 / RFU, NDUFAF7 / Fold change vs veh, NDUFAF7 / RFU, SLC12A2 / Fold change vs veh, SLC12A2 / RFU, IBTK / Fold change vs veh, IBTK / RFU, ESF1 / Fold change vs veh, ESF1 / Fold change vs veh, TMEM50B / RFU, TAOK1 / Fold change vs veh, TAOK1 / RFU, ACBD3 / Fold change vs veh, ACBD3 / RFU, TMA16 / Fold change vs veh, TMA16 / RFU, RWDD3 / Fold change vs veh, RWDD3 / RFU, BCAT1 / Fold change vs veh, BCAT1 / RFU, EDEM3 / Fold change vs veh, EDEM3 / RFU, TMEM33 / Fold change vs veh, TMEM33 / RFU, WDR75 / Fold change vs veh, WDR75 / RFU, AHCTF1 / Fold change vs veh, AHCTF1 / RFU, TFRC / Fold change vs veh, TFRC / RFU, ZDHHC17 / Fold change vs veh, ZDHHC17 / RFU, NOM1 / Fold change vs veh, NOM1 / RFU, ARL8B / Fold change vs veh, ARL8B / RFU, ZBTB11 / Fold change vs veh, ZBTB11 / RFU, TAMM41 / Fold change vs veh, TAMM41 / RFU, KIAA1704 /// LOC100996395 / Fold change vs veh, KIAA1704 /// LOC100996395 / RFU, ING1 / Fold change vs veh, ING1 / RFU, TRMT61B / Fold change vs veh, TRMT61B / RFU, FUBP3 / Fold change vs veh, FUBP3 / RFU, TP53 / Fold change vs veh, TP53 / RFU, TNKS2 / Fold change vs veh, TNKS2 / RFU, ZFP14 / Fold change vs veh, ZFP14 / RFU, ACTR2 / Fold change vs veh, ACTR2 / RFU, PPP3R1 / Fold change vs veh, PPP3R1 / RFU, PIK3R1 / Fold change vs veh, PIK3R1 / RFU, HNRNPA1 / Fold change vs veh, HNRNPA1 / RFU, RNF170 / Fold change vs veh, RNF170 / RFU, ZNF28 / Fold change vs veh, ZNF28 / RFU, RNGTT / Fold change vs veh, RNGTT / RFU, OGT / Fold change vs veh, OGT / RFU, BRD1 / Fold change vs veh, BRD1 / RFU, MARS / Fold change vs veh, MARS / RFU, ZNF655 / Fold change vs veh, ZNF655 / RFU, FAHD1 / Fold change vs veh, FAHD1 / RFU, BDP1 / Fold change vs veh, BDP1 / RFU, LRRCC1 / Fold change vs veh, LRRCC1 / RFU, ARID1A / Fold change vs veh, ARID1A / RFU, ZNF146 / Fold change vs veh, ZNF146 / RFU, ZNF330 / Fold change vs veh, ZNF330 / RFU, GPN3 / Fold change vs veh, GPN3 / RFU, C9orf123 / Fold change vs veh, C9orf123 / RFU, N4BP2L2 / Fold change vs veh, N4BP2L2 / RFU, ARFIP1 / Fold change vs veh, ARFIP1 / RFU, FAM179B / Fold change vs veh, FAM179B / RFU, BCL10 / Fold change vs veh, BCL10 / RFU, UHRF1BP1L / Fold change vs veh, UHRF1BP1L / RFU, BET1 / Fold change vs veh, BET1 / RFU, CNOT2 / Fold change vs veh, CNOT2 / RFU, ZNF268 / Fold change vs veh, ZNF268 / Fold change vs veh, ZNF507 / RFU, DGCR2 / Fold change vs veh, DGCR2 / RFU, WDSUB1 / Fold change vs veh, WDSUB1 / Fold change vs veh, HSP90B1 /// MIR3652 / RFU, ADSS / Fold change vs veh, ADSS / RFU, GK / Fold change vs veh, GK / RFU, ZNF148 / Fold change vs veh, ZNF148 / RFU, TAF9 / Fold change vs veh, TAF9 / RFU, SLC1A5 / Fold change vs veh, SLC1A5 / RFU, SLMO2 / Fold change vs veh, SLMO2 / RFU, ABCC4 / Fold change vs veh, ABCC4 / RFU, LOC101060439 /// RAP1B / Fold change vs veh, LOC101060439 /// RAP1B / RFU, RFX7 / Fold change vs veh, RFX7 / RFU, GTPBP10 / Fold change vs veh, GTPBP10 / RFU, CNEP1R1 / Fold change vs veh, CNEP1R1 / RFU, BIVM-ERCC5 /// ERCC5 / Fold change vs veh, BIVM-ERCC5 /// ERCC5 / RFU, ILF3 / Fold change vs veh, ILF3 / RFU 11762660_at / Fold change /veh 11762660_at / RFU VCAN (11757783_s_at) / Fold change /veh VCAN (11757783_s_at) / RFU DDX43 (11728927_at) / Fold change /veh DDX43 (11728927_at) / RFU KRT8 (11758188_x_at) / Fold change /veh KRT8 (11758188_x_at) / RFU NKD1 (11759106_at) / Fold change /veh NKD1 (11759106_at) / RFU SRD5A1 (11742802_a_at) / Fold change /veh SRD5A1 (11742802_a_at) / RFU TPSAB1 /// TPSB2 (11721975_s_at) / Fold change /veh TPSAB1 /// TPSB2 (11721975_s_at) / RFU GSTM3 (11746129_a_at) / Fold change /veh GSTM3 (11746129_a_at) / RFU IL23R (11737362_x_at) / Fold change /veh IL23R (11737362_x_at) / RFU TMEM51 (11727254_a_at) / Fold change /veh TMEM51 (11727254_a_at) / RFU PIWIL2 (11732686_x_at) / Fold change /veh PIWIL2 (11732686_x_at) / RFU ORM1 (11744905_x_at) / Fold change /veh ORM1 (11744905_x_at) / RFU CCDC152 (11743942_at) / Fold change /veh CCDC152 (11743942_at) / RFU ECM1 (11717891_a_at) / Fold change /veh ECM1 (11717891_a_at) / RFU IL23R (11748794_a_at) / Fold change /veh IL23R (11748794_a_at) / RFU TNFAIP8L3 (11732012_x_at) / Fold change /veh TNFAIP8L3 (11732012_x_at) / RFU MBOAT4 (11741988_at) / Fold change /veh MBOAT4 (11741988_at) / RFU 11764193_at / Fold change /veh 11764193_at / RFU TMEM53 (11763286_at) / Fold change /veh TMEM53 (11763286_at) / RFU MAGEB2 (11727129_at) / Fold change /veh MAGEB2 (11727129_at) / RFU TMEM200A (11744735_a_at) / Fold change /veh TMEM200A (11744735_a_at) / RFU CCDC152 (11751479_a_at) / Fold change /veh CCDC152 (11751479_a_at) / RFU FAM211A (11726209_a_at) / Fold change /veh FAM211A (11726209_a_at) / RFU RGS16 (11746705_a_at) / Fold change /veh RGS16 (11746705_a_at) / RFU VCAN (11755009_s_at) / Fold change /veh VCAN (11755009_s_at) / RFU RHOB (11743442_s_at) / Fold change /veh RHOB (11743442_s_at) / RFU RGS16 (11720943_a_at) / Fold change /veh RGS16 (11720943_a_at) / RFU RGS16 (11720944_at) / Fold change /veh RGS16 (11720944_at) / RFU, VPS4B / Fold change vs veh, VPS4B / RFU, CREB1 / Fold change vs veh, CREB1 / RFU, DNAJC13 / Fold change vs veh, DNAJC13 / RFU, GNAQ / Fold change vs veh, GNAQ / RFU, CDK5R1 / Fold change vs veh, CDK5R1 / RFU, ZRANB3 / Fold change vs veh, ZRANB3 / RFU, CUL4A / Fold change vs veh, CUL4A / RFU, CCNY / Fold change vs veh, CCNY / RFU, UFL1 / Fold change vs veh, UFL1 / RFU, COG3 / Fold change vs veh, COG3 / RFU, DIAPH2 / Fold change vs veh, DIAPH2 / RFU, SKA2 / Fold change vs veh, SKA2 / RFU, AFF3 / Fold change vs veh, AFF3 / RFU, LMF1 / Fold change vs veh, LMF1 / RFU, IPO11 / Fold change vs veh, IPO11 / RFU, DFFB / Fold change vs veh, DFFB / RFU, FOXP1 / Fold change vs veh, FOXP1 / RFU, CARD8 / Fold change vs veh, CARD8 / RFU, STRN3 / Fold change vs veh, STRN3 / RFU, ADK / Fold change vs veh, ADK / RFU, RASSF2 / Fold change vs veh, RASSF2 / RFU, WIPF1 / Fold change vs veh, WIPF1 / RFU, LARP1B / Fold change vs veh, LARP1B / RFU, RASA1 / Fold change vs veh, RASA1 / RFU, RB1 / Fold change vs veh, RB1 / RFU, PPFIA1 / Fold change vs veh, PPFIA1 / RFU, MAT2A / Fold change vs veh, MAT2A / RFU, CCT5 / Fold change vs veh, CCT5 / RFU, WDR92 / Fold change vs veh, WDR92 / RFU, CUX1 / Fold change vs veh, CUX1 / RFU, TTC7A / Fold change vs veh, TTC7A / RFU, TMEM135 / Fold change vs veh, TMEM135 / RFU, DEPTOR / Fold change vs veh, DEPTOR / RFU, CPM / Fold change vs veh, CPM / RFU, DNAJB6 / Fold change vs veh, DNAJB6 / RFU, CACNA2D3 / Fold change vs veh, CACNA2D3 / RFU, DTX4 / Fold change vs veh, DTX4 / RFU, TFCP2 / Fold change vs veh, TFCP2 / RFU, GMCL1 /// GMCL1P1 / Fold change vs veh, GMCL1 /// GMCL1P1 / RFU, AEBP2 / Fold change vs veh, AEBP2 / RFU, SNHG1 /// SNORD22 /// SNORD25 /// SNORD26 /// SNORD27 /// SNORD28 /// SNORD29 /// SNORD31 / Fold change vs veh, SNHG1 /// SNORD22 /// SNORD25 /// SNORD26 /// SNORD27 /// SNORD28 /// SNORD29 /// SNORD31 / Fold change (Aza/veh), C12orf56 (ProbeSet 11735607_a_at) / Fold change (ACY-1035/veh), C12orf56 (ProbeSet 11735607_a_at) / Fold change (Aza/veh), FGFR1OP (ProbeSet 11751329_s_at) / Fold change (ACY-1035/veh), FGFR1OP (ProbeSet 11751329_s_at) / Fold change (Aza/veh), VPS36 (ProbeSet 11739960_a_at) / Fold change (ACY-1035/veh), VPS36 (ProbeSet 11739960_a_at) / RFU SYPL1 (11715823_x_at) / Fold change /veh SYPL1 (11715823_x_at) / RFU IGFBP7 (11715501_s_at) / Fold change /veh IGFBP7 (11715501_s_at) / RFU REEP3 (11722064_at) / Fold change /veh REEP3 (11722064_at) / RFU IGLL1 (11728026_x_at) / Fold change /veh IGLL1 (11728026_x_at): dose or concentration left out as unconfirmed", "conditions": "MV-4-11 cells, 48 hours"}
{"smiles": "Nc1ncn([C@@H]2O[C@H](CO)[C@@H](O)[C@H]2O)c(=O)n1", "note": "[azacitidine]", "values": [{"measurement": "RFU CCDC152 (11751479_a_at)", "value": 11.18, "unit": "RFU"}]}
